For data set [1], the system named is MCF-7 tumor cells. As to the kind of experiment: In vitro antitumor activity, MTT assay, MCF-7. As to conditions: Homo sapiens, MCF7, 72 h treatment, conjugates in taxane molar equivalents. The format is cell-based. The procedure: (§1) In order to determine if the activity of the prepared intermediates and prepared conjugates, we evaluated their antitumor activities by using MTT assay.
(§2) All cell lines were maintained in a humidified atmosphere containing 5% CO2 at 37° C. in different media supplemented with 10% FBS, 100 U/ml penicillin, and 100 μg/ml streptomycin. MCF-7, NCI-H460 or OVCAR-3 tumor cells were seeded into a 96-well cell culture plate and incubated overnight. The 96-well culture plate was taken out from the incubator, and the conjugates or mixture of different compounds or polysaccharides were added into it. […] Three wells were set at each concentration. Blank control contained tumor cells in normal medium without any sample. After treatment for 72 h, 20 μL of 3-(4, 5-dimethylthiazole-2)-2,5-diphenyltetrazolium bromide (MTT) were added to each well and incubated for 4 hours at 37° C. […] The half-inhibitory concentration (IC50 value) of each compound or conjugate was calculated.

Data set [2] deals with NCI-H460 tumor cells. The data set can be described thus: In vitro antitumor activity, MTT assay, NCI-H460. The data set is classed as cell-based. As to conditions: Homo sapiens, 72 h treatment, conjugates in taxane molar equivalents. As for the experimental part:
as §1, §2

The test system of data set [3] is metastatic malignant melanoma cancer. To be noted: patients with metastatic malignant melanoma cancer; Ann. Oncol., 2011; cited from earlier work.
The nature of data set [4]: Enhanced solubility test for poorly water-soluble compounds. The format is physicochemical. As to conditions: 1.0 mg alone in 2.0 ml distilled water, sonicated for 1 minute.
A short description of data set [5]: In vivo safety assay in xenograft nude mice: body weight and death. Set-up: species or system BALB/c (nu/nu) mice. As to conditions: whole experiment period; 8.0 mg/kg docetaxel or equimolar dose, i.v. once a week, 4 weeks. As for the experimental part: BALB/c (nu/nu) mice (20±2 g, 4-6 weeks old) were housed under pathogen-free conditions. Cancer cells such MCF-7 and NCI-H460 5.0×10^6, suspended in 100 μl PBS, were subcutaneously inoculated into the lower right rank of the nude mice. When the tumor size reached 100-150 mm^3, the mice were divided randomly into different groups (n=6 in each group). The control group received the solvent only. […] The mice were treated for 4 weeks. After the administration, the mice are raised normally. The tumor volume and mouse body weight were measured on every 3 days.

The conditions of data set [6]: literature report, drugbank.ca; cited from earlier work.
The test system of data set [7] is OVCAR-3 (drug resistance) tumor cells. As to the kind of experiment: In vitro antitumor activity, MTT assay, OVCAR-3. The format is cell-based. As to conditions: Homo sapiens, 72 h, taxane molar equivalents, molar ratio of taxane to lipid (Paclitaxel:DHA) 1:0, 1:1, 1:2, 1:4 per row. As for the experimental part: as §1
All cell lines were maintained in a humidified atmosphere containing 5% CO2 at 37° C. in different media supplemented with 10% FBS, 100 U/ml penicillin, and 100 μg/ml streptomycin. MCF-7, NCI-H460 or OVCAR-3 tumor cells were seeded into a 96-well cell culture plate and incubated overnight. The 96-well culture plate was taken out from the incubator, and the conjugates or mixture of different compounds or polysaccharides were added into it. The concentration of each compound or conjugate were set to 500 nM, 200 nM, 100 nM, 50 nM, 25 nM, 12.5 nM, 6 nM, 3 nM and 1 nM. Three wells were set at each concentration. Blank control contained tumor cells in normal medium without any sample. After treatment for 72 h, 20 μL of 3-(4, 5-dimethylthiazole-2)-2,5-diphenyltetrazolium bromide (MTT) were added to each well and incubated for 4 hours at 37° C. After the removal of the supernatant, MTT formazan was dissolved in 150 μl dimethyl sulfoxide (DMSO) and monitored using a microplate reader at a wavelength of 570 nm. The half-inhibitory concentration (IC50 value) of each compound or conjugate was calculated.

Values after ≈ are worked out from the molar mass of the structure shown.

Consider `CO[C@H]1C(=O)[C@]2(C)[C@@H](OC)C[C@H]3OC[C@@]3(OC(C)=O)[C@H]2[C@H](OC(=O)c2ccccc2)[C@]2(O)C[C@H](OC(=O)[C@H](O)[C@@H](NC(=O)OC(C)(C)C)c3ccccc3)C(C)=C1C2(C)C` [Cabazitaxel, cabazitaxel], for which the IC50 in data set [1] is 8.3 ± 0.5 nM; in data set [2], 7.1 ± 0.3 nM.

With `CC/C=C\C/C=C\C/C=C\C/C=C\C/C=C\C/C=C/CCC(=O)O[C@@H](C(=O)O[C@H]1C[C@@]2(O)[C@@H](OC(=O)c3ccccc3)C3[C@](C)(C(=O)[C@H](OC(C)=O)C(=C1C)C2(C)C)[C@@H](O)C[C@H]1OC[C@@]31OC(C)=O)[C@@H](NC(=O)c1ccccc1)c1ccccc1` (stereo partly drawn) [DHA-paclitaxel], in data set [3], the “final survival rates versus dacarbazine group” value is “no significant differences in final survival rates”.

Consider `CC(=O)O[C@@]12CO[C@@H]1C[C@H](O)[C@@]1(C)C(=O)[C@H](O)C3=C(C)[C@@H](OC(=O)[C@H](O)[C@@H](NC(=O)OC(C)(C)C)c4ccccc4)C[C@@](O)([C@@H](OC(=O)c4ccccc4)[C@H]21)C3(C)C` [Docetaxel, docetaxel], for which the “observation of the compound alone in water” value in data set [4] is “undissolved powder floated over water surface was clearly observed”. Also, the concentration for half-maximal inhibition (IC50) is 9.5 ± 0.2 nM in data set [1] and 6.7 ± 0.6 nM in data set [2]. Besides, in data set [5], the “death of nude mice” value was “no death”. In data set [6], the “solubility in water (literature)” value was 1.27 µg/mL (≈ 1.57 µM).

For `CC(=O)O[C@H]1C(=O)[C@@]2(C)[C@H]([C@H](OC(=O)c3ccccc3)[C@]3(O)C[C@H](OC(=O)[C@H](O)[C@@H](NC(=O)c4ccccc4)c4ccccc4)C(C)=C1C3(C)C)[C@]1(OC(C)=O)CO[C@@H]1C[C@@H]2O` [Paclitaxel, paclitaxel], the “observation of the compound alone in water” value in data set [4] is recorded as “undissolved powder floated over water surface was clearly observed”. Moreover, the concentration for half-maximal inhibition (IC50) in data set [1] was determined as 21.9 ± 1.1 nM; in data set [2] it was 17.9 ± 1.3 nM; in data set [7] it was 57.6 ± 6.3 nM.
